Legend:
[1] = molecular target: Beta-2 adrenergic receptor (Homo sapiens, UniProt P07550); assay: DRUGMATRIX: Adrenergic beta2 radioligand binding (ligand: [3H] CGP-12177); format: cell membranes, CHO, Membrane; settings: cho; Not Active = under 50% inhibition at 10 µM
[2] = molecular target: Aldo-keto reductase family 1 member B1 (Rattus norvegicus, UniProt P07943); assay: biochemical; format: tissue-based, Lens of camera-type eye;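 note: inhibition of aldose reductase enzyme activity, measured with DL-glyceraldehyde as the substrate; in other assays of this panel Not Active means under 50% inhibition at 10 µM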
Vasopressin V1a receptor = Vasopressin V1a receptor (Homo sapiens, UniProt P37288); format: cell membranes, Membrane; settings: hek293; note: in other assays of this panel Not Active means under 50% inhibition at 10 µM
Sequence of Vasopressin V1a receptor (P37288 whole entry): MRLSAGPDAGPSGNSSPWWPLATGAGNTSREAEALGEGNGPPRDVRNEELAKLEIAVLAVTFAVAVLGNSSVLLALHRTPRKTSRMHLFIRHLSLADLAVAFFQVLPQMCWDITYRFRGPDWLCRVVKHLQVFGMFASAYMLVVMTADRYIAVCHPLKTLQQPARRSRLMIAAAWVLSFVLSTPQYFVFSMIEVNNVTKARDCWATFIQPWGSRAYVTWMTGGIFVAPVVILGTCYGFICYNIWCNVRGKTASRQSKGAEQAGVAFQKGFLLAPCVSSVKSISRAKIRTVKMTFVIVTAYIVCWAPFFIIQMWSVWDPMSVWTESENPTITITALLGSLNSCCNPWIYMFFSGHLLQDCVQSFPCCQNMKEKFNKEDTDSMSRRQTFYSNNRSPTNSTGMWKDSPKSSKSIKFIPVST

[3] = molecular target: C-C chemokine receptor type 2 (Homo sapiens, UniProt P41597); format: cell membranes, Membrane; settings: cho-k1; note: in other assays of this panel Not Active means under 50% inhibition at 10 µM
Sequence of C-C chemokine receptor type 2 (P41597 whole entry): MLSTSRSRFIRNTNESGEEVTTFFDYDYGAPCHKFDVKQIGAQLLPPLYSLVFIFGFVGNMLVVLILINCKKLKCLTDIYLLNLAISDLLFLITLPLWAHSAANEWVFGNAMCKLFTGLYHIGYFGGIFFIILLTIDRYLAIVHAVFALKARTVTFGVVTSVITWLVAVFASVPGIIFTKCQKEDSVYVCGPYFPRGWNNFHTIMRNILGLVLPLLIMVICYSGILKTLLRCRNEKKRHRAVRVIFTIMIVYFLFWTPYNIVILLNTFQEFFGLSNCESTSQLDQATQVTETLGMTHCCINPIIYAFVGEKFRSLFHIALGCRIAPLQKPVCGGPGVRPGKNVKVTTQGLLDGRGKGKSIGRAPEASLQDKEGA

Melanocortin receptor 5 = Melanocortin receptor 5 (Homo sapiens, UniProt P33032); format: cell membranes, HEK293, Membrane; settings: hek293; note: in other assays of this panel Not Active means under 50% inhibition at 10 µM
Sequence of Melanocortin receptor 5 (P33032 whole entry): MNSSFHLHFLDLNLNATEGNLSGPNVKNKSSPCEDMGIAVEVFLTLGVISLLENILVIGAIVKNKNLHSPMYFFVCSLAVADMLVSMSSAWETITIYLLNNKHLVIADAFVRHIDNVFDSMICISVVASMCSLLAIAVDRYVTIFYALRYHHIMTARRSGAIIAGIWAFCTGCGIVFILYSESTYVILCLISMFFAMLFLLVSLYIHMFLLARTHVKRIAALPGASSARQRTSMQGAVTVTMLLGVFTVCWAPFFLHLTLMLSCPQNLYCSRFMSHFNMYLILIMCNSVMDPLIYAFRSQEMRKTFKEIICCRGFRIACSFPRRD

[4] = DRUGMATRIX: Platelet-Derived Growth Factor (PDGF) radioligand binding (ligand: [125I] PDGF); format: cell-based; settings: nih3t3; Not Active = under 50% inhibition at 10 µM
Acetylcholinesterase = Acetylcholinesterase (Homo sapiens, UniProt P22303); assay: DRUGMATRIX: Acetylcholinesterase enzyme inhibition (substrate: acetylthiocholine); format: cell-based, HEK293; settings: hek293; Not Active = under 50% inhibition at 10 µM
Sequence of Acetylcholinesterase (P22303 whole entry): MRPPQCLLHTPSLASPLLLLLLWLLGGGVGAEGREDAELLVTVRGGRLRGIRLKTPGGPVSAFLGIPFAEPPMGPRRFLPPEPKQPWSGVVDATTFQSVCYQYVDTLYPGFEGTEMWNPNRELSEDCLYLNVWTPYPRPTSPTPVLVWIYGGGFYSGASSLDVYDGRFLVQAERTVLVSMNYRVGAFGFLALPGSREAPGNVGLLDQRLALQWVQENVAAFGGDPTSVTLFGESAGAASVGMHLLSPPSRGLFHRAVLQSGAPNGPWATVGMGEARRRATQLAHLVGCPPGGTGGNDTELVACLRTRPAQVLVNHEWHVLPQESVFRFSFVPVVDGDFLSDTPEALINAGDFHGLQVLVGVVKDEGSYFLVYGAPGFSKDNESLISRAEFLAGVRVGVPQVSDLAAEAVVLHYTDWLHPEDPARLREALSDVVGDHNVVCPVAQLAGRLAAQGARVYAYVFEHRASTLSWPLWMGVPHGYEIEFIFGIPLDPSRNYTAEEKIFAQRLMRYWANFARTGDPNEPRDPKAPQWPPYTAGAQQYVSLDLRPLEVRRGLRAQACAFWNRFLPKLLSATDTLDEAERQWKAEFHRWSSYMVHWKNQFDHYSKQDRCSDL

Compound	IC50 [1]	IC50 [2]	IC50 (Vasopressin V1a receptor)	IC50 [3]	IC50 (Melanocortin receptor 5)	IC50 [4]	Ki [4]	IC50 (Acetylcholinesterase)	IC50 ([2]; read-out: IC50) [nM]	Ki [1]	Ki [2]	Ki (Vasopressin V1a receptor)	Ki [3]	Ki (Melanocortin receptor 5)	Ki (Acetylcholinesterase)	IC50 (Melanocortin receptor 5; read-out: IC50) [nM]	Ki (Melanocortin receptor 5; read-out: Ki) [nM]
NC(=O)c1cccc(N)c1 [3-AMINOBENZAMIDE]	Not Active	Not Active	Not Active	Not Active	Not Active	Not Active	Not Active	Not Active	–	–	–	–	–	–	–	–	–
CC(=O)OC[C@H]1O[C@@H](n2ncc(=O)[nH]c2=O)[C@H](OC(C)=O)[C@@H]1OC(C)=O [AZARIBINE]	Not Active	Not Active	Not Active	Not Active	Not Active	Not Active	Not Active	Not Active	–	–	–	–	–	–	–	–	–
NC(=O)N1c2ccccc2CC(=O)c2ccccc21 [OXCARBAZEPINE]	Not Active	Not Active	Not Active	Not Active	Not Active	Not Active	Not Active	Not Active	–	–	–	–	–	–	–	–	–
C#C[C@]1(O)CC[C@H]2[C@@H]3CCC4=CC(=O)CC[C@]4(C)[C@H]3CC[C@@]21C [ETHISTERONE]	Not Active	Not Active	Not Active	Not Active	Not Active	Not Active	Not Active	Not Active	–	–	–	–	–	–	–	–	–
CCC1=C(C)CN(C(=O)NCCc2ccc(S(=O)(=O)NC(=O)N[C@H]3CC[C@H](C)CC3)cc2)C1=O [GLIMEPIRIDE]	Not Active	Not Active	Not Active	Not Active	Not Active	Not Active	Not Active	Not Active	–	–	–	–	–	–	–	–	–
O=C(O)CCCc1cccs1	Not Active	Not Active	Not Active	Not Active	Not Active	Not Active	Not Active	Not Active	–	–	–	–	–	–	–	–	–
Cc1ccc(C)c(OCCCC(C)(C)C(=O)O)c1 [GEMFIBROZIL]	Not Active	Not Active	Not Active	Not Active	Not Active	Not Active	Not Active	Not Active	–	–	–	–	–	–	–	–	–
NNCCc1ccccc1 [PHENELZINE]	Not Active	Not Active	Not Active	Not Active	Not Active	Not Active	Not Active	Not Active	–	–	–	–	–	–	–	–	–
O=C(O)CCNC(=O)c1ccc(/N=N/c2ccc(O)c(C(=O)O)c2)cc1 [BALSALAZIDE]	Not Active	Not Active	Not Active	Not Active	Not Active	Not Active	Not Active	Not Active	–	–	–	–	–	–	–	–	–
C[S+](C)[O-] [DIMETHYL SULFOXIDE]	Not Active	Not Active	Not Active	Not Active	Not Active	Not Active	Not Active	Not Active	–	–	–	–	–	–	–	–	–
O=C(c1ccccc1F)N1CCC(Cc2ccccc2)CC1	Not Active	Not Active	Not Active	Not Active	Not Active	Not Active	Not Active	Not Active	–	–	–	–	–	–	–	–	–
COc1cc(OC)c(C(=O)CCCN2CCCC2)c(OC)c1 [BUFLOMEDIL]	Not Active	Not Active	Not Active	Not Active	Not Active	Not Active	Not Active	Not Active	–	–	–	–	–	–	–	–	–
COC(=O)Nc1nc2cc(C(=O)c3ccc(F)cc3)ccc2[nH]1 [FLUBENDAZOLE]	Not Active	Not Active	Not Active	Not Active	Not Active	Not Active	Not Active	Not Active	–	–	–	–	–	–	–	–	–
COc1ccnc(C[S+]([O-])c2nc3ccc(OC(F)F)cc3[nH]2)c1OC (stereo not drawn) [PANTOPRAZOLE]	Not Active	Not Active	Not Active	Not Active	Not Active	Not Active	Not Active	Not Active	–	–	–	–	–	–	–	–	–
CCc1ccc(CCOc2ccc(CC3SC(=O)NC3=O)cc2)nc1 (stereo not drawn) [PIOGLITAZONE]	Not Active	–	Not Active	Not Active	Not Active	Not Active	Not Active	Not Active	13200	–	–	–	–	–	–	–	–
CC[C@H]1[C@@H]2C[C@H]3[C@@H]4N(C)c5ccccc5[C@]45C[C@@H]([C@@H]2[C@H]5O)N3[C@@H]1O [AJMALINE]	Not Active	Not Active	Not Active	Not Active	Not Active	Not Active	Not Active	Not Active	–	–	–	–	–	–	–	–	–

Compound	IC50 [1]	IC50 [2]	IC50 (Vasopressin V1a receptor)	IC50 [3]	IC50 (Melanocortin receptor 5)	IC50 [4]	Ki [4]	IC50 (Acetylcholinesterase)	IC50 ([2]; read-out: IC50) [nM]	Ki [1]	Ki [2]	Ki (Vasopressin V1a receptor)	Ki [3]	Ki (Melanocortin receptor 5)	Ki (Acetylcholinesterase)	IC50 (Melanocortin receptor 5; read-out: IC50) [nM]	Ki (Melanocortin receptor 5; read-out: Ki) [nM]
CNC1=Nc2ccc(Cl)cc2C(c2ccccc2)=[N+]([O-])C1 [CHLORDIAZEPOXIDE]	Not Active	Not Active	Not Active	Not Active	Not Active	Not Active	Not Active	Not Active	–	–	–	–	–	–	–	–	–
C[C@@H]1O[C@@H](O[C@H]2C[C@@H](O)[C@]3(CO)[C@H]4[C@H](O)C[C@]5(C)[C@@H](C6=CC(=O)OC6)CC[C@]5(O)[C@@H]4CC[C@]3(O)C2)[C@H](O)[C@H](O)[C@H]1O [OUABAIN]	Not Active	Not Active	Not Active	Not Active	Not Active	Not Active	Not Active	Not Active	–	–	–	–	–	–	–	–	–
Cc1cccc(C)c1NC(=O)C1CCCCN1C (stereo not drawn) [MEPIVACAINE]	Not Active	Not Active	Not Active	Not Active	Not Active	Not Active	Not Active	Not Active	–	–	–	–	–	–	–	–	–
CC1=NN(c2ccccc2)C(=O)C1 [EDARAVONE]	Not Active	Not Active	Not Active	Not Active	Not Active	Not Active	Not Active	Not Active	–	–	–	–	–	–	–	–	–
CC(C)C[C@H]1C(=O)N2CCC[C@H]2[C@]2(O)O[C@](NC(=O)[C@@H]3C=C4c5cccc6[nH]cc(c56)C[C@H]4N(C)C3)(C(C)C)C(=O)N12 [ERGOCRYPTINE]	Not Active	Not Active	Not Active	Not Active	Not Active	Not Active	Not Active	Not Active	–	–	–	–	–	–	–	–	–
Cc1cc(O)cc(C)c1Cl [CHLOROXYLENOL]	Not Active	Not Active	Not Active	Not Active	Not Active	Not Active	Not Active	Not Active	–	–	–	–	–	–	–	–	–
CCOC(=O)c1ncn2c1CN(C)C(=O)c1cc(F)ccc1-2 [FLUMAZENIL]	Not Active	Not Active	Not Active	Not Active	Not Active	Not Active	Not Active	Not Active	–	–	–	–	–	–	–	–	–
COBALTOUS CHLORIDE	Not Active	Not Active	Not Active	Not Active	Not Active	Not Active	Not Active	Not Active	–	Not Active	Not Active	Not Active	Not Active	Not Active	Not Active	–	–
COc1ccc2c(c1OC)C(=O)O[C@@H]2[C@H]1c2c(cc3c(c2OC)OCO3)CCN1C [NOSCAPINE]	Not Active	Not Active	Not Active	Not Active	Not Active	Not Active	Not Active	Not Active	–	–	–	–	–	–	–	–	–
COLISTIN	Not Active	Not Active	Not Active	Not Active	–	Not Active	Not Active	Not Active	–	Not Active	Not Active	Not Active	Not Active	–	Not Active	266	249
CCN(C(C)=O)c1cccc(-c2ccnc3c(C#N)cnn23)c1 [ZALEPLON]	Not Active	Not Active	Not Active	Not Active	Not Active	Not Active	Not Active	Not Active	–	–	–	–	–	–	–	–	–
CN1C(=O)CN=C(c2ccccc2)c2cc([N+](=O)[O-])ccc21 [NIMETAZEPAM]	Not Active	Not Active	Not Active	Not Active	Not Active	Not Active	Not Active	Not Active	–	–	–	–	–	–	–	–	–
C[C@@H]1C/C=C/C=C/C=C/C=C/[C@H](O[C@@H]2O[C@H](C)[C@@H](O)[C@H](N)[C@@H]2O)C[C@@H]2O[C@](O)(C[C@@H](O)C[C@H]3O[C@@H]3/C=C/C(=O)O1)C[C@H](O)[C@H]2C(=O)O [NATAMYCIN]	Not Active	Not Active	Not Active	Not Active	Not Active	Not Active	Not Active	Not Active	–	–	–	–	–	–	–	–	–
ClC(Cl)(Cl)Cl [CARBON TETRACHLORIDE]	Not Active	Not Active	Not Active	Not Active	Not Active	Not Active	Not Active	Not Active	–	–	–	–	–	–	–	–	–
NC12CC3CC(CC(C3)C1)C2 [AMANTADINE]	Not Active	Not Active	Not Active	Not Active	Not Active	Not Active	Not Active	Not Active	–	–	–	–	–	–	–	–	–
CC(C)c1c(C(=O)Nc2ccccc2)c(-c2ccccc2)c(-c2ccc(F)cc2)n1CC[C@@H](O)C[C@@H](O)CC(=O)O [ATORVASTATIN]	Not Active	Not Active	Not Active	Not Active	Not Active	Not Active	Not Active	Not Active	–	–	–	–	–	–	–	–	–

Reference: ChEMBL document CHEMBL1909046, “DrugMatrix in vitro pharmacology data”
